Experimental data: US20230125667A1, “NOVEL TDZD ANALOGS AS AGENTS THAT DELAY, PREVENT, OR REVERSE AGE-ASSOCIATED DISEASES AND AS ANTI-CANCER AND ANTILEUKEMIC AGENTS” (United States Government as represented by the Department …, priority 2020, published 2023)

Tests used:
C. elegans strain AM141 = assay: Q40::YFP aggregates in C. elegans strain AM141; assay type: in vivo
Method: (§1) Several TDZD-conjugated drugs (putative GSK-3 inhibitors) were evaluated for their ability to reduce accumulation of protein aggregates, and for protection against aggregation-associated end-points in the following model systems: (i.) SH-SY5Y-APPSw, a neuroblastoma cell line expressing the Swedish mutation of Amyloid Precursor Protein (APPSw), and thus predisposed to form β-amyloid deposits; (ii.) C. elegans strain CL4176, a model of Alzheimer-like amyloidopathy that can be induced to express human Aβ1-42 in muscle, or may express it at a lower level without induction; (iii.) C. elegans strain AM141, a model of Huntington-like polyglutamine aggregation that constitutively expresses Q40::YFP (a tract of 40 glutamines fused in-frame to yellow fluorescent protein) in muscle cells and forms aggregates progressively with adult aging. The TDZD analog PNR-962 (a putative GSK-3 inhibitor) and other related compounds (not shown) were protective in all aggregation assays.
Fresh agar plates supporting bacterial lawns, which serve as food for C. elegans, were prepared at least 1 day ahead of use. C. elegans AM141 (forming Q40::YFP aggregates in muscle, progressively in early adulthood) were placed on these 100-mm plates. Day-4 adult worms were lysed with alkaline hypochlorite solution to obtain eggs from worms, a procedure that permits synchronization of worms in a cohort. Eggs were placed on plates spotted with different concentrations of TDZD analogues after allowing the compounds to be evenly distributed on the plates (˜1 hour after adding drugs to plates). Vehicle-only (DMSO) controls are included in each experiment, as a baseline for drug effects in experimental groups. Young-adult AM141 (day-3 adults) were transferred on alternate days onto fresh plates that contained the same doses of compounds, with fresh E. coli to prevent starvation of worms. Equal samples (n=25) were randomly picked from experimental groups and control group for microscopic imaging. Using an in-house plugin for ImageJ software (NIH), several images of AM141 were processed for aggregate count per worm. The fluorescence intensity of each aggregate (indicating the size/content of protein aggregates) was also measured. Each drug treatment was repeated multiple times to validate the results.

SH-SY5Y-APPSw cells = assay: Thioflavin-T staining of amyloid-like aggregates in SH-SY5Y-APPSw cells; assay type: cell-based, human
Method: as §1
First, the effects of TDZD analogues were tested on the human neuroblastoma cell line SH-SY5Y-APPSw, a model of Alzheimer-like amyloid aggregation expressing the “Sw” mutant form of Amyloid Precursor Protein, APP. These drugs all produced significant reductions in amyloid-like aggregates, by 30-50% as quantified by thioflavin-T staining intensity (data for PNR-962 are shown in FIG. 4). Modified TDZD-8 analogues PNR-962 and BSK-179 are more anti-aggregative than TDZD-8, lowering total amyloid-staining intensity by a further 14% (data not shown).
Following previously described experimental procedures (Liu, et al. (2005). S100B-induced microglial and neuronal IL-1 expression is mediated by cell type-specific transcription factors. Journal of Neurochemistry. 92(3): 546-553), SH-SY5Y-APPSw neuronal cells expressing an aggregation-prone double mutant of amyloid precursor protein (APPSw) were cultured in DMEM plus 10% (v/v) fetal bovine serum (FBS) at 37° C. Cells were suspended in trypsin/EDTA and rinsed in PBS prior to re-plating or harvesting. […] Human neuroblastoma cells were treated with PNR962, either simultaneous with sAPPα or beginning 1 h prior to sAPPα addition (pre-treatment) in order to ascertain the protective benefits of PNR962 on protein aggregation in human neuroblastoma cell lines. A similar experimental procedure was followed to examine the effect of treatment with these analogs on non-neuronal human cells, exposing human embryonic kidney cells (HEK) that express tau-like aggregates (found in AD-associated diseases) to 0.001, 0.01, and 1-μM doses of TDZD-8 and its analogues.
To observe the protective effects of the novel TDZD analogs on protein aggregation in SY5Y-APPSw cells, using DMEM medium containing 10% fetal calf serum in […], cells were cultured at 37′C for 26 hrs allowing cells to approximately double in number. After 48 h of cell incubation in the presence of specified concentrations of drug or vehicle, cells were fixed 15 min in formaldehyde (4% v/v), washed, and stained 20 min at ˜22° C. in a dark container with 0.1% w/v Thioflavin T mixed with DAPI (1 μg/ml; Life Technologies, Grand Island, N.Y., USA). […] The intensity of aggregate/thioflavin-T fluorescence per field was quantified via an Image J plug-in developed in-house, and normalized to the number of DAPI^+ nuclei counted per field, to obtain an average intensity of aggregates per cell for each treatment.

wild-type nematodes = assay: Lifespan of C. elegans; assay type: in vivo; conditions: FIG. 8
Method: It was previously shown that several interventions that improve age-associated phenotypes also modulate lifespan (Ayyadevara et al. (2017) Antioxid Redox Signal. 27(17): 1383-1396; Ayyadevara et al. (2005) Aging Cell. 4(5): 257-271). The lifespan was assessed in C. elegans, either mock-treated or exposed to TDZD analogues. PNR-962 and BSK-179 extended the lifespan of wild-type nematodes to an identical degree, increasing the mean by roughly 25-30% (P<0.001; FIG. 8).
To obtain synchronized eggs for lifespan studies, worms were maintained for 2 generations, free of contamination and starvation. Healthy, well-fed adult worms from the 2nd generation were then lysed, and eggs placed on plates with appropriate doses of TDZD analogue PNR962, or DMSO vehicle alone (for a final concentration of 0.02% v/v DMSO). At the L4 larval stage, worms were transferred daily to fresh plates for 7 days, and thereafter on alternate days until all the worms are dead. C. elegans that moved spontaneously or responded to gentle prodding were scored as alive. For the mortality computation, worms that were lost for reasons other than natural death were censored. The methods described were adopted from previously described experimental procedures (Ayyadevara, et al. (2016) PIP3-binding proteins promote age-dependent protein aggregation and limit survival in C. elegans. Oncotarget, 7(31): 48870-48886; Bharill, et al. (2013) Extreme Depletion of PIP3 Accompanies the Increased Life Span and Stress Tolerance of PI3K-null C. elegans Mutants. Frontiers in Genetics, 4).

C. elegans = conditions: in vivo; cited from earlier work

| SMILES | number of aggregation foci (C. elegans strain AM141; C. elegans model of Huntington's Disease (FIG. 7)) | reduction of total intensity of Q40::YFP aggregates (C. elegans strain AM141; FIG. 7) [fold] | further lowering of total amyloid-staining intensity relative to TDZD-8 (SH-SY5Y-APPSw cells; data not shown) [%] | amyloid accumulation (thioflavin T stained foci) (SH-SY5Y-APPSw cells; treated for 2 days (FIG. 9)) | lifespan (wild-type nematodes) | extension of nematode lifespan (C. elegans) [%] |
| --- | --- | --- | --- | --- | --- | --- |
| CC(=O)Oc1ccccc1C(=O)NCc1ccc(Cn2c(=O)sn(CCCl)c2=O)cc1 [BSK-179] | decreases | > 2 | 14 | reduces amyloid accumulation | increased |  |
| CC(=O)Oc1ccccc1C(=O)O [aspirin, acetylsalicylic acid, reference compound] |  |  |  |  | increased | 22 |
